Marks after values point to notes of the source that are not given here.
Test system: codling moth neonates
Test: apple plug choice feeding bioassay with codling moth neonates
Assay type: in vivo, Cydia pomonella
Parameters: key to Deterrence index: (1 − treated feeders / control feeders) × 100
Details: for feeding deterrent properties against codling moth neonates: all concentrations tested; for feeding deterrent properties against codling moth neonates / concentration at which feeding deterrent effects were found: Fisher exact test
Protocol: Codling moth pupae were obtained from USDA-ARS Yakima Agricultural Research Laboratory in Wapato, Wash., USA. These pupae were stored at 25° C., 70-80% relative humidity and 16:8 (L:D). Moths were allowed to oviposit on polypropylene Ziploc bags (S. C. Johnson, Racine, Wis., USA). Neonates were collected 0.5-1.0 h post-hatch and subjected to bioassays immediately.
Bioassays were performed as described in details by Durden et al. (2008). Briefly, apple plugs were formed by forcing a plastic soda straw through a 20 mm thick section of apple containing both epidermis and flesh of the apple. The straw with a plug in it was cut to a length of approximately 15 mm, the plug positioned with the epidermis of the apple protruding 2 mm from the straw and entire assembly was dipped in liquid paraffin wax. Excess wax was removed from the epidermis of the plug using a warm spatula.
Five microliters of either control (dehydration alcohol only) or experimental solution was applied to the epidermis of each apple plug and allowed to dry. Using a small amount of modeling clay, four plugs (two controls, two experimental) were arranged with one control and one experimental plug facing each other at either side of a 60×15 mm polyurethane petri dish. A short piece of glass rod (1.3 mm diameter) was placed between the two pairs of plugs to form a bridge allowing tested codling moth neonate to choose between either control or experimental plug regardless of which direction the larva traveled along the glass rod.
Assays were evaluated after 20 hours to determine which plug was fed upon. Feeding deterrence index was calculated according to Jones (1952) by dividing the number of the neonates feeding on apple plugs treated with […] by the number of the neonates feeding on the plugs treated with dehydration alcohol only, subtracting this figure from 1, and multiplying the result by 100. Further details about this method may be found in Durden et al. (2008) and Durden et al., (2011).
[…] The number of tests per concentration (each test performed with a different neonate) varied between 13 and 93. The null hypothesis that 50% of neonates would choose control plugs and 50% would choose experimental plugs was tested using Fisher's Exact Test (α=0.05).

[1] = choice test versus fruit treated at 0.1 mg/ml
[2] = choice test versus fruit treated at 1 mg/ml
[3] = choice test versus fruit treated at 10 mg/ml
[4] = circa 3 mg/ml, saturated solution
[5] = choice test versus fruit treated at 30 mg/ml
[6] = choice test versus fruit treated at 0.5 mg/ml
[7] = choice test versus fruit treated at 5 mg/ml

Compound	Deterrence index (0.1 mg/ml)	Number of neonates feeding Treated fruit (0.1 mg/ml)	Deterrence index (1 mg/ml)	Number of neonates feeding Treated fruit (1 mg/ml)	Deterrence index (10 mg/ml)	Number of neonates feeding Treated fruit (10 mg/ml)	feeding deterrent properties against codling moth neonates	Number of neonates feeding Control fruit [1]	Number of neonates feeding Control fruit [2]	Number of neonates feeding Control fruit [3]	Deterrence index (0.5 mg/ml)	Number of neonates feeding Treated fruit (0.5 mg/ml)	Deterrence index (5 mg/ml)	Number of neonates feeding Treated fruit (5 mg/ml)	Number of neonates feeding Control fruit [6]	Number of neonates feeding Control fruit [7]	further results
C[C@@H]1C(=O)O[C@H]2C[C@@]34[C@H]5C[C@@H](C(C)(C)C)[C@]36[C@@H](OC(=O)[C@@H]6O)O[C@@]4(C(=O)O5)[C@]21O [Ginkgolide A]	7.69	12	40.4	28	38.5	16	did not exhibit significant feeding deterrent properties	13	47	26							
COc1cc(-c2oc3cc(O)cc(O)c3c(=O)c2O)ccc1O [Isorhamnetin]	10.3	26	No deterrence	43			slight tendency to discourage some percentage of the larvae from infesting the fruit	29	28								Deterrence index (0.01 mg/ml): 21.7; Number of neonates feeding Treated fruit (0.01 mg/ml): 18; Number of neonates feeding Control fruit (choice test versus fruit treated at 0.01 mg/ml): 23; Number of neonates feeding Control fruit (choice test versus fruit treated at circa 3 mg/ml, saturated solution): 28; Deterrence index [4]: 32.1; Number of neonates feeding Treated fruit [4]: 19
O=c1c(O)c(-c2ccc(O)c(O)c2)oc2cc(O)cc(O)c12 [Quercetin]	No deterrence	14	No deterrence	24	No deterrence	20		10	24	16							Deterrence index (30 mg/ml): No deterrence**; Number of neonates feeding Treated fruit (30 mg/ml): 21; Number of neonates feeding Control fruit [5]: 4
CCCCCCCCCCCCCCCc1cccc(O)c1C(=O)O [Ginkgolic acid 15:0]			91.7	1*					12		26.7	11	81.8	4**	15	22	Deterrence index (0.2 mg/ml): 25.0; Number of neonates feeding Treated fruit (0.2 mg/ml): 12; Deterrence index (2 mg/ml): 73.7; Number of neonates feeding Treated fruit (2 mg/ml): 5*; concentration at which feeding deterrent effects were found: ≥ 1 mg/mL; Number of neonates feeding Control fruit (choice test versus fruit treated at 0.2 mg/ml): 16; Number of neonates feeding Control fruit (choice test versus fruit treated at 2 mg/ml): 19
CC1C(=O)OC2C(O)C34C5CC(C(C)(C)C)C36C(OC(=O)C6O)OC4(C(=O)O5)C12O (stereo not shown) [Ginkgolide B]	12.5	14	26.1	17	76.0	6***		16	23	25							concentration at which feeding deterrent effects were found: 10 mg/mL
CCCCCCCCCCCCCc1cccc(O)c1C(=O)O [Ginkgolic acid 13:0]			26.1	17	42.1	11	did not exhibit significant feeding deterrent properties		23	19	23.5	13	0	14	17	14	
CCCCCC/C=C\CCCCCCCCCc1cccc(O)c1C(=O)O [Ginkgolic acid 17:1]			5.3	18	60.0	8	did not exhibit significant feeding deterrent properties		19	20	37.5	10	54.5	10	16	22	
O=c1c(O)c(-c2ccc(O)cc2)oc2cc(O)cc(O)c12 [Kaempferol]	No deterrence	12	25	24	No deterrence	10		8	32	10							Deterrence index (30 mg/ml): No deterrence**; Number of neonates feeding Treated fruit (30 mg/ml): 35; Deterrence index (60 mg/ml): No deterrence*; Number of neonates feeding Treated fruit (60 mg/ml): 17; Number of neonates feeding Control fruit [5]: 9; Number of neonates feeding Control fruit (choice test versus fruit treated at 60 mg/ml): 3
CCCCCC/C=C\CCCCCCCc1cccc(O)c1C(=O)O [Ginkgolic acid 15:1]			41.7	14	63.2	7	did not exhibit significant feeding deterrent properties		24	19	18.8	13	50.0	15	16	30	

Reference: patent US10010077B2, “Ginkgo derived compositions and their use to prevent fruit infestation by codling moth” (Missouri State University, priority 2012, dated 2018)
